Where a name gives a salt, the structure may show the parent alone.
Experiments:
[1] = test system: NCI-H292 lung cancer cells; experiment: FDA drug screening, complete media vs cholesterol-free media without statin (TABLE 1); format: cell-based, human; details: for Difference: about 0 neutral
[2] = test system: NCI-H292 lung cancer cells; experiment: FDA drug screening, complete media vs cholesterol-free media with simvastatin (TABLE 2); format: cell-based, human; details: for Cholesterol-free media + simvastatin (0.04 μM) / Complete Media: NCI-H292 cells; for Difference: >0 enhanced anti-cancer activity, about 0 neutral, <0 antagonist
[3] = Complete minus Cholesterol-free, >0 enhanced anti-cancer activity, <0 antagonist
[4] = NCI-H292 cells, cholesterol-free media without statin
[5] = cholesterol-free media with simvastatin 0.04 μM, FDA drug library screen (TABLE 2)
[6] = complete media, FDA drug library screen (TABLE 2)
[7] = complete media minus cholesterol-free media + simvastatin (0.04 μM)
[8] = NCI-H292 cells, cholesterol-free media without statin, FDA drug library screen
[9] = NCI-H292 cells, complete media, FDA drug library screen
[10] = FDA library drug in cholesterol-free media with simvastatin 0.04 μM
[11] = FDA library drug in complete media
[12] = complete media vs cholesterol-free media + simvastatin (0.04 μM)
[13] = Complete minus Cholesterol-free, greater than 0 enhanced anti-cancer activity, below 0 antagonists
[14] = NCI-H292 cells in cholesterol-free media without statin
[15] = NCI-H292 cells in complete media
[16] = FDA drug library screen, cholesterol-free media with simvastatin 0.04 μM
[17] = FDA drug library screen, complete media
[18] = complete media minus cholesterol-free media + simvastatin
[19] = Complete minus Cholesterol-free, greater than 0 enhanced anti-cancer activity, below 0 antagonist
[20] = NCI-H292 cells, FDA drug library screen, cholesterol-free media without statin
[21] = NCI-H292 cells, FDA drug library screen, complete media
[22] = complete vs cholesterol-free media, >0 enhanced anti-cancer activity, <0 antagonist
[23] = drug in cholesterol-free media with simvastatin 0.04 μM

## CC(=O)N1C[C@H](O)C[C@H]1C(=O)O [Oxaceprol]
[1]; [3]
  Difference: −0.27
[1]; [4]
  Cholesterol-free: 0.9566
[1]; NCI-H292 cells, complete media
  Complete: 0.6838
[2]; [5]
  Cholesterol-free media + simvastatin (0.04 μM): 0.8786
[2]; [6]
  Complete Media: 0.8552
[2]; [7]
  Difference: −0.02

## Cc1onc(-c2ccccc2)c1C(=O)N[C@@H]1C(=O)N2[C@@H]1SC(C)(C)[C@@H]2C(=O)O [Oxacillin (sodium monohydrate)]
[1]; [3]
  Difference: −0.02
[1]; [8]
  Cholesterol-free: 0.9255
[1]; [9]
  Complete: 0.9062
[2]; [10]
  Cholesterol-free media + simvastatin (0.04 μM): 1.304
[2]; [11]
  Complete Media: 1.035
[2]; [12]
  Difference: −0.27

## CN1CCCN=C1/C=C/c1cccc(O)c1.O=C(O)c1cc2ccccc2c(Cc2c(O)c(C(=O)O)cc3ccccc23)c1O [Oxantel (pamoate)]
[1]; [13]
  Difference: −0.51
[1]; [14]
  Cholesterol-free: 1.526
[1]; [15]
  Complete: 1.019
[2]; [16]
  Cholesterol-free media + simvastatin (0.04 μM): 0.9072
[2]; [17]
  Complete Media: 1.051
[2]; [18]
  Difference: 0.14

## O=C(O)CCc1nc(-c2ccccc2)c(-c2ccccc2)o1 [Oxaprozin]
[1]; [19]
  Difference: −0.11
[1]; [20]
  Cholesterol-free: 1.125
[1]; [21]
  Complete: 1.011
[2]; [5]
  Cholesterol-free media + simvastatin (0.04 μM): 0.8941
[2]; [6]
  Complete Media: 0.904
[2]; [7]
  Difference: 0.01

## NC(=O)N1c2ccccc2CC(=O)c2ccccc21 [Oxcarbazepine]
[1]; [8]
  Cholesterol-free: 0.8341
[1]; [9]
  Complete: 1.538
[1]; [22]
  Difference: 0.70
[2]; [10]
  Cholesterol-free media + simvastatin (0.04 μM): 1.305
[2]; [11]
  Complete Media: 0.9097
[2]; [12]
  Difference: −0.40

## CN(C(=O)CN(CCO)CC(=O)N(C)C(C)(C)Cc1ccccc1)C(C)(C)Cc1ccccc1 [Oxethazaine]
[1]; [13]
  Difference: −1.45
[1]; [14]
  Cholesterol-free: 2.442
[1]; [15]
  Complete: 0.9966
[2]; [16]
  Cholesterol-free media + simvastatin (0.04 μM): 1.131
[2]; [17]
  Complete Media: 0.9874
[2]; [12]
  Difference: −0.14

## Clc1ccc(CO/N=C(\Cn2ccnc2)c2ccc(Cl)cc2Cl)c(Cl)c1 [Oxiconazole nitrate]
[1]; [3]
  Difference: 0.00
[1]; [8]
  Cholesterol-free: 0.7425
[1]; [9]
  Complete: 0.7401
[2]; [16]
  Cholesterol-free media + simvastatin (0.04 μM): 0.3071
[2]; [17]
  Complete Media: 1.067
[2]; [18]
  Difference: 0.76

## NC(=O)CN1CC(O)CC1=O (stereo not drawn) [Oxiracetam]
[1]; [3]
  Difference: −0.22
[1]; [4]
  Cholesterol-free: 1.104
[1]; NCI-H292 cells, complete media
  Complete: 0.8826
[2]; [10]
  Cholesterol-free media + simvastatin (0.04 μM): 1.234
[2]; [11]
  Complete Media: 0.9456
[2]; [12]
  Difference: −0.29

## C=CCOc1ccccc1OCC(O)CNC(C)C (stereo not drawn) [Oxprenolol (hydrochloride)]
[1]; [8]
  Cholesterol-free: 1.177
[1]; [9]
  Complete: 1.262
[1]; [22]
  Difference: 0.09
[2]; cholesterol-free media with simvastatin 0.04 μM, cell growth value in FDA drug screen
  Cholesterol-free media + simvastatin (0.04 μM): 0.8718
[2]; complete media, cell growth value in FDA drug screen
  Complete Media: 0.9135
[2]; [18]
  Difference: 0.04

## COc1ccc(C(=O)c2ccccc2)c(O)c1 [Oxybenzone]
[1]; [3]
  Difference: −0.29
[1]; [4]
  Cholesterol-free: 1.383
[1]; NCI-H292 cells, complete media
  Complete: 1.094
[2]; [23]
  Cholesterol-free media + simvastatin (0.04 μM): 1.175
[2]; drug in complete media
  Complete Media: 0.918
[2]; [12]
  Difference: −0.26

## CCCCOc1cc(C(=O)OCCN(CC)CC)ccc1N [Oxybuprocaine hydrochloride]
[1]; [8]
  Cholesterol-free: 0.7998
[1]; [9]
  Complete: 0.9021
[1]; [22]
  Difference: 0.10
[2]; [16]
  Cholesterol-free media + simvastatin (0.04 μM): 0.4662
[2]; [17]
  Complete Media: 1.022
[2]; [18]
  Difference: 0.56

## CCN(CC)CC#CCOC(=O)C(O)(c1ccccc1)C1CCCCC1 (stereo not drawn) [Oxybutynin (chloride)]
[1]; [4]
  Cholesterol-free: 1.171
[1]; NCI-H292 cells, complete media
  Complete: 0.8317
[1]; complete vs cholesterol-free media, greater than 0 enhanced anti-cancer activity, below 0 antagonists
  Difference: −0.34
[2]; [23]
  Cholesterol-free media + simvastatin (0.04 μM): 1.236
[2]; drug in complete media
  Complete Media: 1.034
[2]; [12]
  Difference: −0.20

## CCN(CC)CC#CCOC(=O)C(O)(c1ccccc1)C1CCCCC1 (stereo not drawn) [Oxybutynin]
[1]; [19]
  Difference: −0.10
[1]; [20]
  Cholesterol-free: 1.075
[1]; [21]
  Complete: 0.9761
[2]; [16]
  Cholesterol-free media + simvastatin (0.04 μM): 0.7436
[2]; [17]
  Complete Media: 1.133
[2]; [18]
  Difference: 0.39

— patent publication US20250144067A1, “PERSONALIZED STARVATION THERAPY FOR CANCER” (Faeth Therapeutics, Inc., priority 2021, published 2025)
